According to PubChem BioAssay (NCI):
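96-well plates; 48 h exposure; 5 concentrations. Endpoints by linear interpolation between flanking doses. Not reached: highest tested concentration assigned. TGI: total growth inhibition.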

Assays:
Assay in all cases: inhibition of tumour cell growth, NCI panel, 48 h
NCI-H460 lung = tested on: NCI-H460 lung
U251 CNS = tested on: U251 CNS
MDA-MB-435 = tested on: MDA-MB-435
M14 melanoma = tested on: M14 melanoma
SK-MEL-2 melanoma = tested on: SK-MEL-2 melanoma
NCI-H226 lung = tested on: NCI-H226 lung
OVCAR-3 ovarian = tested on: OVCAR-3 ovarian
LOX IMVI melanoma = tested on: LOX IMVI melanoma
SR leukemia = tested on: SR leukemia
CCRF-CEM leukemia = tested on: CCRF-CEM leukemia

SMILES | TGI (NCI-H460 lung) [µM] | TGI (U251 CNS) [µM] | TGI (MDA-MB-435) [µM] | TGI (M14 melanoma) [µM] | TGI (SK-MEL-2 melanoma) [µM] | TGI (NCI-H226 lung) [µM] | TGI (OVCAR-3 ovarian) [µM] | TGI (LOX IMVI melanoma) [µM] | TGI (SR leukemia) [µM] | TGI (CCRF-CEM leukemia) [µM]
CNc1ccc(C(=O)CC(O)CCC(C)C2OC(=O)CC(O)CC(=O)CC(O)CC(O)CC(O)CC(O)CC3(O)CC(O)C(C(=O)NCCN(C)C)C(CC(OC4OC(C)C(O)C(NC(=O)CN5CCN(C)CC5)C4O)/C=C/C=C/C=C/C=C\C=C/C=C/C=C/C2C)O3)cc1 (stereo not drawn) | > 100 | > 100 | > 100 | > 100 | > 100 | > 100 | – | – | – | –
CC(C)(C)NC(NC(C)(C)C)=C(/C=C(/Cl)[N+](=O)[O-])[N+](=O)[O-] | > 100 | > 100 | 38.3 | 92.5 | > 100 | > 100 | 49.7 | > 100 | > 100 | > 100
CC(C)CC1C(=O)NCCC(NC(=O)C(Cc2ccc(OC(C)(C)C)cc2)NC(=O)OC(C)(C)C)C(=O)NC(Cc2ccccc2)C(=O)NC(Cc2ccccc2)NC1=O (stereo not drawn) | 15 | 27.2 | 12.2 | 32.2 | – | 21.2 | 19.9 | 19.3 | 72.1 | 55
CN(C(=O)C1=CCC2(CC1)OCCO2)c1ccccc1OS(=O)(=O)C(F)(F)F | > 100 | > 100 | > 100 | > 100 | > 100 | 85.4 | > 100 | > 100 | > 100 | > 100
COc1cccc2c1OC(c1ccc(Cl)cc1)C([N+](=O)[O-])=C2 (stereo not drawn) | 4.92 | 5.77 | 8.68 | 2.57 | – | – | 7.08 | 2.71 | > 100 | 4
COC(=O)CC(C#N)(OP1(=O)OC(c2ccccc2)C(C)N1C)c1ccccc1 (stereo not drawn) | 44.4 | 87.3 | 53.7 | > 100 | 95 | – | 42.6 | 53.4 | 74.8 | 38.7
CN=c1nc2sc3c(c2c(NC(=S)NC)s1)CCCC3 | > 100 | > 100 | > 100 | – | > 100 | > 100 | > 100 | > 100 | > 100 | > 100
COc1ccc(N2C(=O)/C(=C(\C)c3cc4ccccc4oc3=O)N=C2c2cc([N+](=O)[O-])ccc2Cl)cc1 | > 100 | > 100 | – | 86.3 | > 100 | > 100 | > 100 | > 100 | > 100 | > 100
CC(C)C(=O)[C@@]1(C)SC[C@H]2CCN=C21 | > 100 | – | > 100 | > 100 | – | > 100 | > 100 | > 100 | > 100 | > 100
Nc1ccc2c(c1)N(C(=O)c1cc3cc(NC(=O)c4cc5ccccc5o4)ccc3[nH]1)CC2CCl (stereo not drawn) | > 32.8 | 12 | 0.512 | – | 0.398 | 0.329 | 0.56 | > 100 | – | –
CCCCc1c(N(C)C)c(OC(C)=O)c(-c2cn(C)c3ccccc23)oc1=O | > 100 | 64 | 47.8 | 35.8 | 40.7 | 36.8 | 67.9 | – | > 100 | > 100
CC1=CC(C)C/C=C/C2C3OC3(C)C(C)C3C(Cc4c[nH]c5ccccc45)NC(=O)C23C(=O)C=CC(=O)C1O (stereo not drawn) | 27.6 | 43.2 | 46.6 | 16.8 | 34.6 | 32 | 12.1 | 17.9 | – | 3.02
Cc1cc(C)n2nc3nc(N)c(C#N)c(-c4ccccc4)c3c2n1 | > 100 | > 100 | > 100 | > 100 | > 100 | > 100 | > 100 | > 100 | > 100 | > 100
CC(C)(C)[Si](OC1CC(n2cnc3c(N)ncnc32)OC1CO)(c1ccccc1)c1ccccc1 (stereo not drawn) | 30.7 | 34.1 | – | > 100 | 36.1 | 27.1 | 33.9 | 31.7 | 43.8 | > 100
CCCCN(CCCC)CC(O)c1cc(-c2ccc(C(F)(F)F)cc2)nc(-c2ccc(C(F)(F)F)cc2)c1 (stereo not drawn) | > 100 | > 100 | > 100 | > 100 | > 100 | – | > 100 | > 100 | > 100 | > 100
O=C(O)c1ccc(Nc2c3ccccc3nc3ccccc23)cc1 | > 100 | > 100 | – | – | > 100 | > 100 | > 100 | > 100 | – | > 100
OC1(C(F)(F)F)OCCN=C1C(F)(F)F (stereo not drawn) | > 100 | > 100 | > 100 | > 100 | > 100 | > 100 | > 100 | > 100 | – | > 100
OC1[C@@H]2[C@@H](O)[C@H](O)[C@@H](O)N2C[C@@H]1O (stereo partly drawn) | > 100 | > 100 | > 100 | > 100 | > 100 | > 100 | > 100 | > 100 | > 43.6 | > 100
COc1cc(C2SCC(=O)N2c2ccccn2)cc(OC)c1OC (stereo not drawn) | > 100 | > 100 | 77.6 | > 100 | > 100 | > 100 | > 100 | > 100 | > 100 | > 100
CCOc1cc2c(OCc3ccccc3)cc3c4cc(OC)c(OC)cc4c[n+](C)c3c2cc1OC | > 58.9 | 2.66 | – | 9.73 | 2.59 | 9.71 | 6.17 | – | – | 23
COC(=O)C1=C(C)NC2=C(C(=O)c3ccccc32)C1c1cn(-c2ccccc2)nc1-c1ccccc1 (stereo not drawn) | – | > 100 | > 100 | > 100 | > 100 | > 100 | > 100 | > 100 | > 21.6 | > 100
CCCC(=O)n1[nH]c(=O)n(-c2ccc(Cl)cc2)c1=O | > 100 | > 100 | > 100 | > 100 | > 100 | > 100 | > 100 | > 100 | > 100 | > 100
